PubChem BioAssay AID1973 (The Scripps Research Institute Molecular Screening Center, 2009)
The source made the active and inactive calls.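 Rule for the calls: active = IC50 dose giving half inhibition of the KLF5 reporter of 10 micromolar or lower; inactive = IC50 above 10 micromolar.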

test system: DLD-1 KLF5 promoter-luciferase reporter, luminescence; assay: KLF5 promoter reporter inhibitors, dose response, luminescence, DLD-1 cells, luciferase reporter (AID 1973)

SMILES	IC50
O=C1C(Nc2ccccc2)=C(N2CCCCC2)C(=O)c2ccccc21	13400 nM (inactive)
CCCc1ccc(C(=O)O/N=C(\N)c2ccccn2)cc1	107 nM
O=C(N/N=C/c1cc(O)ccc1Br)c1cccnc1	1710 nM
O=C(Nc1nccs1)c1cc2c(s1)CCCCC2	2860 nM
c1ccc(-c2ccc(-c3nc(-c4ccccn4)no3)cc2)cc1	360 nM
COc1ccc(C(=O)Nc2nc3ccccc3s2)c(OC)c1	2340 nM
O=C(NCCc1ccccc1)c1ccc2c(c1)OCCO2	1060 nM
COc1cccc(/C=N/Nc2nccnc2Cl)c1O	2080 nM
COC(=O)C1=C(CN2CCCc3ccccc32)NC(=O)NC1c1ccc(F)cc1 (stereo unspecified)	3050 nM
CCc1ccn2cc(-c3ccc4c(c3)OCO4)nc2c1	1900 nM
COc1cccc(/C=N/Nc2ncc(C(F)(F)F)cc2Cl)c1O	562 nM
O=C(c1cc(-c2ccccc2Cl)on1)N1CCCC1	3480 nM
Oc1cccc2ccc(Nc3ccccn3)nc12	2450 nM
Clc1ccccc1/C=C/c1nc(-c2ccccn2)no1	1540 nM
COc1ccc2[nH]c(C(=O)N/N=C/c3ccc(OC)c(O)c3)cc2c1	5120 nM
Cc1ccc(C(=O)O/N=C(\N)c2ccccn2)c(C)c1	1420 nM
Oc1ccc(N=Nc2ccccc2C(F)(F)F)c2cccnc12	1900 nM
Cc1ccc(S(=O)(=O)Nc2cc(Cl)c(O)c3ncccc23)cc1	1820 nM
CN(C)c1ccc(/C=N/Nc2cccc(C(=O)O)c2)cc1	617 nM
Cc1ccc2[nH]c(C(=O)N/N=C/c3ccccc3O)c(C)c2c1	> 39800 nM (inactive)
Cc1ccc(C(=O)Nc2nc3ccccc3[nH]2)cc1	3530 nM
COc1ccc(OC)c(N/C=C/C(=O)c2ccccc2)c1	1690 nM
COc1ccc(Cl)cc1C(=O)Nc1nc2ccccc2[nH]1	4030 nM
C#Cc1ccc([C@@H]2C=C(C(=O)N3CCN(Cc4ccccc4)CC3)O[C@H](OCCCCO)C2)cc1	2720 nM

SMILES	IC50
CCOC(=O)c1sc(NC(=O)c2sc(C)nc2C)nc1C	> 39800 nM (inactive)
Cc1ccc2nc(NC(=O)CCCc3nc4ccccc4s3)sc2c1	207 nM
COc1ccc(-n2ncc3c(N4CCCCC4)ncnc32)cc1	1360 nM
CCOc1cc(Br)cc(/C=N/NC(=O)c2cccnc2)c1O	1660 nM
Cc1ccc(C(=O)O/N=C(\N)c2ccccn2)c(Cl)c1	2800 nM
CCc1ccc(C(=O)Nc2nc3ccccc3[nH]2)cc1	2830 nM
Cc1ccc(C(=O)Nc2cnc3ccccc3c2)cc1	735 nM
CN1CCN(c2ccc(-c3ccc4ccccc4n3)cc2)CC1	166 nM
Cc1cc(C(=O)COC(=O)c2ccccc2O)c(C)n1Cc1cccs1	563 nM
CCCCN=C[C@]12CCC(O)CC1(O)CCC1[C@@H]2CC[C@]2(C)[C@H](C3C=CC(=O)O3)CCC12O (stereo partly specified)	2020 nM
Nc1ccc(-c2nc3ccc(C(=O)O)cc3s2)cc1	383 nM
CN(C(=O)COC(=O)/C=C/c1cccc([N+](=O)[O-])c1)C1CCS(=O)(=O)C1 (stereo unspecified)	518 nM
Cc1ccccc1OCC(=O)Nc1cccc(C(=O)O)c1	1240 nM
COc1ccc(OC)c(Nc2cc(C)nc3nc(C)nn23)c1	486 nM
CC(C)(C)c1ccc(-c2noc(CCC(N)=O)n2)cc1	133 nM
COc1ccc(/C=N/NC(=O)CCn2c3ccccc3c3ccccc32)cc1O	1850 nM
N/C(=N\OCc1ccc([N+](=O)[O-])cc1)c1ccccn1	1050 nM
O=C(Nc1nc2cc3c(cc2s1)OCCO3)c1ccco1	1550 nM
COc1ccc(OCc2cccc(C(=O)Nn3cc([N+](=O)[O-])cn3)c2)cc1	332 nM
O=C(Nc1cccc(O)c1)c1cc(-c2ccc3c(c2)OCO3)on1	2060 nM
CCN(CC)S(=O)(=O)c1cc(OC)ccc1N=Nc1ccc(O)c2ncccc12	2030 nM
O=C(Nc1cccnc1)c1cccs1	950 nM
COc1cccc(/C=N/Nc2ccc([N+](=O)[O-])cn2)c1O	4090 nM
COc1ccccc1N1CCN(Cc2cc(Br)c(O)c3ncccc23)CC1	2680 nM

SMILES	IC50
Cc1nc2ccccn2c1-c1csc(Nc2cccc(O)c2)n1	395 nM
Cn1cccc1-c1cc(C(=O)N/N=C/c2cc(Br)ccc2O)[nH]n1	1500 nM
COc1ccc(N/N=C/c2c(C(=O)O)ccc3ccccc23)cc1	1690 nM
O=C(Nc1cccc(C(=O)O)c1)Nc1ccc2c(c1)OCO2	838 nM
CN(CCO)c1ccc(/C=N/Nc2nncc3ccccc23)cc1	1360 nM
O=C(N/N=C/c1cccc(Oc2ccccc2)c1)c1ccccc1F	1240 nM
CCCc1ccc(-c2ccc(/C=C/C(=O)O)cc2)nc1	416 nM
CC(C)(C)c1ccc(-c2noc(CCC(=O)NCC3CCCO3)n2)cc1 (stereo unspecified)	1810 nM
CC(C)(C)c1ccc(-c2noc(CCC(=O)Nc3cccnc3)n2)cc1	104 nM
CC(C)Oc1ccc(C(=O)Nc2nc3ccccc3[nH]2)cc1	1650 nM
CC(C)(C)c1ccc(C(=O)O/N=C(\N)c2ccccn2)cc1	270 nM
Cc1cc(C(=O)CN2C(=O)c3ccccc3S2(=O)=O)c(C)n1CC1CCCO1 (stereo unspecified)	267 nM
CC1CCN(c2ccc(-c3cccs3)nn2)CC1	1260 nM
CCN1C=CC(=C2C(=O)c3ccccc3C2=O)C=C1	950 nM
COC(=O)c1ccc(Oc2cc(C)nc(-n3nc(C)cc3C)n2)cc1	520 nM
CCc1ccn2cc(-c3cc(-c4ccccc4)no3)nc2c1	660 nM
Cc1ccc(C(=O)N/N=C/c2cc(Br)ccc2O)cn1	1910 nM
Oc1cccc(/C=N/Nc2ccc(Cl)nn2)c1O	1900 nM
O=C(CCCc1ccccc1)c1ccc2c(c1)OCCO2	1240 nM
CC(C)(C)c1ccc(C(=O)O/N=C(\N)c2ccccc2)cc1	1750 nM
CCCS(=O)(=O)c1cnc(C2COc3ccccc3O2)nc1N (stereo unspecified)	1400 nM
Cc1cc(-c2ccccc2)n(-c2cc(N/N=C/c3ccccc3O)ncn2)n1	998 nM
CC1CCN(Cc2c(C(=O)N/N=C/c3ccccc3O)nnn2-c2nonc2N)CC1	1810 nM
CC(C)(C)C(=O)Nc1cc2nn(-c3ccccc3)nc2cc1Cl	98.8 nM

SMILES	IC50
O=C(O)c1ccc(N/N=C/c2c[nH]c3ccccc23)cc1	1520 nM
CC(C)(C)C(=O)Nc1ccc(NC(=O)c2ccco2)nc1	960 nM
COc1ccc(OC)c2[nH]c(C(=O)N/N=C/c3ccccc3O)cc12	1670 nM
O=C(NCCc1ccccc1F)c1ccc2c(c1)OCCO2	424 nM
COc1cccc(/C=N/NC(=O)c2cc3c(OC)ccc(OC)c3[nH]2)c1O	2460 nM
COC(=O)c1c(N)sc(C(=O)NCCc2ccccc2)c1C	1930 nM
CC(C)(C)c1ccc(C(=O)Nc2sc3c(c2C(=O)O)CCC3)cc1	1160 nM
C[C@@H]1O[C@@H](O[C@H]2C[C@@H](O)[C@]3(CO)[C@H]4[C@H](O)C[C@]5(C)[C@@H](C6COC(=O)C6)CC[C@]5(O)[C@@H]4CC[C@]3(O)C2)[C@H](O)[C@H](O)[C@H]1O (stereo partly specified)	3850 nM
Cc1ccc(C(=O)N/N=C/c2c(O)ccc3ccccc23)cn1	1490 nM
O=C(N/N=C/c1cc(Br)ccc1OC(=O)c1ccc(Br)cc1)c1ccncc1	1540 nM
O=C(NCCc1ccccc1)c1ccc2c(c1)OCCCO2	421 nM
CN(C)c1ccc(Nc2nc(N)c3ccccc3n2)cc1	2520 nM
O=C(CSc1n[nH]c(-c2ccccn2)n1)Nc1ccc(Cl)cc1	4380 nM
COC(=O)c1nn(-c2ccc3c(c2)CCN3C(C)=O)cc1O	2040 nM
Cc1ccc(-c2nnc(SCC(=O)Nc3ccccc3F)o2)cc1	2500 nM
COc1ccc2nc(SCC(=O)NC3CCCC3)c(C)cc2c1	1360 nM
COc1cccc(/C=N/Nc2ccc(C(=O)O)cc2)c1O	43.1 nM
COC(=O)c1ccc2nc(Nc3nc4ccc(F)cc4s3)sc2c1	6.98 nM
O=C(N/N=C/c1c(O)ccc2ccccc12)c1cccnc1	1620 nM
C[C@]12CCC3C(CCC4=CC(O)CC[C@@]43/C=N/O)C1(O)CCC2C1=CC(=O)OC1 (stereo partly specified)	2200 nM
CC(C)CC(NC(=O)CCCNC(=O)CCC(=O)OC1O[C@H]2OC3(C)CC[C@H]4[C@H](C)CCC(C1C)C24OO3)C(=O)O (stereo partly specified)	502 nM
O=C(O)CSCC(=O)Nc1ccc(C2CCCCC2)cc1	1290 nM
CNC1=C(N(C(C)=O)c2ccc(Br)cc2)C(=O)c2ccccc2C1=O	1860 nM
CCOC(=O)c1sc(NC(=O)c2cc3c(s2)CCC(C)C3)nc1C (stereo unspecified)	109 nM

SMILES	IC50
NS(=O)(=O)c1ccc(N=Nc2ccc(O)c3ncccc23)cc1	3180 nM
Nc1c(C(=O)Nc2cccc(C(=O)O)c2)sc2nc3c(cc12)CCCC3	1470 nM
O=C(O)c1cccc(COc2ccc3c(c2)CCC3)c1	695 nM
O=C(CN1C(=O)c2ccccc2S1(=O)=O)c1ccc(Cl)cc1Cl	1690 nM
COc1cc(/C=N/O)ccc1OCc1ccc(C(=O)O)cc1	820 nM
COc1cc(/C=C/[N+](=O)[O-])ccc1OCc1cccc(C(=O)O)c1	2070 nM
c1ccc(-c2noc(-c3ccc4ccccc4c3)n2)nc1	798 nM
Cc1cc(/C=N/Nc2nc(N)ncc2[N+](=O)[O-])c(C)n1-c1ccccc1F	401 nM
O=C(Nc1ccc(N2CCCCC2)cc1)c1ccccn1	703 nM
C[C@@H]1O[C@@H](O[C@H]2C[C@@H](O)[C@]3(CO)[C@H]4[C@H](O)C[C@]5(C)[C@@H](C6=CC(=O)OC6)CC[C@]5(O)[C@@H]4CC[C@]3(O)C2)[C@H](O)[C@H](O)[C@H]1O	165 nM
COc1ccc(C(=O)N/N=C/c2cc(Br)ccc2O)cc1OC	1560 nM
C/C(=N\NC(=O)c1n[nH]c2c1CCC2)c1cccs1	2430 nM
CCNC(=S)NNC(=O)c1cc(-c2ccc(OCC)cc2)nc2ccccc12	4170 nM
CCc1ccc(NC(=O)c2cnn3ccccc23)cc1	1860 nM
O=C(N/N=C/c1c(O)ccc2ccccc12)c1ccc(Br)o1	1780 nM
CN(C)c1ccc(/C=C/c2nc3ccccc3c(=O)[nH]2)cc1	1510 nM
O=C(NC1=NCCS1)C1COc2ccccc2O1 (stereo unspecified)	2630 nM
CCOc1cccc(/C=N/NC(=O)c2ccc3c(c2)OCCO3)c1O	1650 nM
O=C(N/N=C/c1cc(Cl)ccc1O)c1cccnc1	1630 nM
COc1cc(N=Cc2c(O)[nH]c3ccccc23)cc(OC)c1OC	1030 nM
